# Tests used:
# [1] = tested on: gastrointestinal and pancreatic lipases; settings: ref Guercioloni, 1997; Bellinger and Peikin, 2002; Othman et al., 2021; cited from earlier work
# [2] = biological target: T1, Porcine Pancreas Lipase (PPL) (Sus scrofa, UniProt P00591); experiment: Inhibition of lipase activity assay in vitro; type: biochemical; settings: for inhibition at 6.25 µg/mL / inhibition at 12.5 µg/mL / inhibition at 25 µg/mL / inhibition at 50 µg/mL / inhibition at 100 µg/mL / inhibition at 200 µg/mL: read-out: Inhibition Percentage (%)
# T1 sequence (P00591 1-450): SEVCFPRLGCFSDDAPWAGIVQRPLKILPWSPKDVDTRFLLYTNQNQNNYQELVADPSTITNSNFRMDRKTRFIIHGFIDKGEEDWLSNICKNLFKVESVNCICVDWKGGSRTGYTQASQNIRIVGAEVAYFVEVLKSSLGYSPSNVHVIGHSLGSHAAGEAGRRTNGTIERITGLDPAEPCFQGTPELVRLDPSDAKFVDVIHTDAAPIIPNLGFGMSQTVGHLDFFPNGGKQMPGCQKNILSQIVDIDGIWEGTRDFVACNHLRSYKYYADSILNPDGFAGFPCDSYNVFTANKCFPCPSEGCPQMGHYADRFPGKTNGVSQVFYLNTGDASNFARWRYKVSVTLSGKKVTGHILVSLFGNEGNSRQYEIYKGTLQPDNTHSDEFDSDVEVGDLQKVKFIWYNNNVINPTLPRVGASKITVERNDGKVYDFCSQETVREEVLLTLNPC
inhibition at 6.25 µg/mL [2],inhibition at 12.5 µg/mL [2],inhibition at 25 µg/mL [2],inhibition at 50 µg/mL [2],inhibition at 100 µg/mL [2],inhibition at 200 µg/mL [2],IC50 [2],Compound,prevention of absorption of dietary fat [1]
50.6%,52.4%,55.6%,77.3%,89.4%,93.3%,,CCCCCCCCCCC[C@@H](C[C@@H]1OC(=O)[C@H]1CCCCCC)OC(=O)[C@H](CC(C)C)NC=O [Orlistat],approximately 30%
34%,38.6%,64.6%,76.2%,81.4%,83.9%,80.3 µM,"Cn1c(=O)c2c(ncn2C)n(C)c1=O [Compound 2, caffeine]",
29.4%,59.2%,64.2%,77.6%,86.7%,89.6%,33.6 µM,"O=C(/C=C/c1ccc(O)c(O)c1)O[C@@H]1C[C@](O)(C(=O)O)C[C@@H](O)[C@H]1O [Compound 3, Chlorogenic acid]",

# Source: publication PMC8350192 (Heliyon, 2021)
